Source: US11980596B2 (priority 2017, dated 2024)

Columns and labels:
[1] = Pharmacokinetics of esketamine nasal spray, 14 Phase 1 studies (Example 10); settings: young adult subjects
Experimental: The data herein was assembled from 14 Phase 1 studies; each Phase 1 study was performed similarly to the study outlined in Example 9 in which the PK of esketamine was assessed.

[2] = test system: male and female rats; assay: Fertility study in male and female rats; assay type: in vivo, rat
Experimental: (§1) The No Observed Adverse Effect Level (NOAEL) for mating and fertility is 45 mg/kg/day which is 0.6 times the esketamine exposures at MRHD of 84 mg/day.

[3] = Fertility study in male and female rats; assay type: in vivo, rat; settings: both sexes, rat, in vivo, inhaled or intranasal; read-out: NOAEL for mating and fertility
Experimental: as §1

[4] = test system: subjects with TRD; settings: IND or OP/MA phases; among the 76 subjects
Excerpt: The efficacy and safety analyses are based on the full (IND) analysis set and the full (OP/MA) analysis set. The full (IND) analysis set is defined as all subjects who receive at least 1 dose of intranasal study medication or 1 dose of oral antidepressant in the open-label IND phase (for direct-entry and transferred-entry non-responder subjects). The full (OP/MA) analysis is defined as all subjects who receive at least 1 dose of intranasal study medication or 1 dose of oral antidepressant in the OP/MA phase. Safety variables include cognition function over time, treatment-emergent adverse events (TEAEs), including TEAEs of special interest, vital signs over time, Clinician-Administered Dissociative Symptom Scale (CADDS) over time, and Modified Observer's Assessment of Alertness/Sedation (MOAA/S) score≤3.

[5] = test system: adult subjects with TRD; settings: post dose
Experimental: The MOAA/S was used to measure treatment-emergent sedation, with correlation to levels of sedation defined by the American Society of Anesthesiologists (ASA) continuum. The MOAA/S scores range from 0=no response to painful stimulus (corresponds to ASA continuum for general anesthesia) to 5=readily responds to name spoken in normal tone (awake; corresponds to ASA continuum for minimal sedation).
On each intranasal dosing day, the MOAA/S was performed every 15 minutes from pre-dose to t=+1.5 hours post-dose. If the score was ≤3 at any time during the 1.5 hours post-dose interval, the MOAA/S was performed every 5 minutes until a score of 4 is reached (at which point a frequency of every 15 minutes can be resumed until t=+1.5 hours post dose). […] For subjects with a score of 4, the assessment was repeated every 15 minutes. […]
The Modified Observer's Assessment of Alertness/Sedation (MOAA/S) was used to measure treatment-emergent sedation with correlation to levels of sedation defined by the American Society of Anesthesiologists (ASA) continuum. The MOAA/S scores ranged from 0 (No response to painful stimulus; corresponds to ASA continuum for general anesthesia) to 5 (Readily responds to name spoken in normal tone [awake]; corresponding to ASA continuum for minimal sedation).

[6] = test system: pregnant rats and pups; assay: Pre- and postnatal study, intranasal esketamine, pregnant rats; assay type: in vivo, rat
Experimental: (§2) This sensory/motor developmental measure was tested starting on postnatal day (PND) 9, and the effect normalized by PND 19 in treatment groups as compared with PND 14 for the majority of the control animals. There is no NOAEL for this delay in sensory/motor response observed in pups during the preweaning period.

[7] = as above; assay type: in vivo, rat; settings: female, rat, in vivo, inhaled or intranasal; intranasal; pregnancy and lactation; read-out: NOAEL for maternal toxicity and decreased motor activity during the postweaning period
Experimental: as §2

[8] = test system: CYPs and UGTs
[9] = test system: elderly subjects with TRD; assay type: in vivo, human; settings: each dosing day
Excerpt: The Modified Observer's Assessment of Alertness/Sedation (MOAA/S) was used to measure treatment-emergent sedation with correlation to levels of sedation defined by the American Society of Anesthesiologists (ASA) continuum. The MOAA/S scores range from 0 (No response to painful stimulus; corresponds to ASA continuum for general anesthesia) to 5 (Readily responds to name spoken in normal tone [awake]; corresponds to ASA continuum for minimal sedation). The proportion of subjects with sedation was <4% for the esketamine group for each dosing day.

[10] = test system: subjects with MDD at imminent risk for suicide; assay: Beck Hopelessness Scale (BHS) ([…]2001); assay type: in vivo, human; settings: for BHS total score: change vs placebo: 84 mg
Excerpt: The BHS is a self-reported measure to assess one's level of negative expectations or pessimism regarding the future. It consists of 20 true-false items that examine the respondent's attitude over the past week by either endorsing a pessimistic statement or denying an optimistic statement. For every statement, each response is assigned a score of 0 or 1. The total BHS score is a sum of item responses and ranges from 0 to 20, with a higher score representing a higher level of hopelessness.

[11] = test system: patients with TRD; assay: Adverse reactions in SPRAVATO clinical trials (label); assay type: in vivo, human; settings: up to 4 weeks after cessation of treatment
Experimental: SPRAVATO was evaluated for safety in 1709 patients diagnosed with treatment resistant depression (TRD) [see Clinical Studies (14.1, 14.2)] from five Phase 3 studies (3 short-term and 2 long-term studies) and one Phase 2 dose-ranging study. Of all SPRAVATO-treated patients in the completed Phase 3 studies, 479 (30%) received at least 6 months of treatment, and 178 (11%) received at least 12 months of treatment.
In short-term studies in adults<65 years old (Study 1 pooled with another 4-week study), the proportion of patients who discontinued treatment because of an adverse reaction was 4.6% in patients who received SPRAVATO plus oral AD compared to 1.4% for patients who received placebo nasal spray plus oral AD. For adults 65 years old, the proportions were 5.6% and 3.1%, respectively. In Study 2, a long-term maintenance study, the discontinuation rates because of an adverse reaction were similar for patients receiving SPRAVATO plus oral AD and placebo nasal spray plus oral AD in the maintenance phase, at 2.6% and 2.1%, respectively.
SPRAVATO can cause nausea and vomiting (Table 7). Most of these events occurred on the day of dosing and resolved the same day, with the median duration not exceeding 1 hour in most subjects across dosing sessions. […]

[12] = test system: CYP2B6 and CYP3A4 and to a lesser extent CYP2C9 and CYP2C19; assay: Metabolism by cytochrome P450 enzymes; settings: human
[13] = esketamine 84 mg minus placebo, ANCOVA LOCF
[14] = esketamine 84 mg, LOCF, ITT, N = 35
[15] = esketamine 84 mg, LOCF, ITT, N = 35, negative change = improvement

In the case of `CN[C@]1(c2ccccc2Cl)CCCCC1=O` [esketamine, (S)-2-(2-chlorophenyl)-2-(methylamino)cyclohexanone], the “Tmax, range of median values” ([1]; single dose esketamine nasal spray 28 mg, n = 64) is reported as 19.8 to 40.2 min, the “Tmax, range of median values” ([1]; single dose esketamine nasal spray 56 mg, n = 86) is reported as 30 to 46.2 min and the “Tmax, range of median values” ([1]; single dose esketamine nasal spray 84 mg, n = 167) is reported as 31.8 to 49.8 min. For the same compound, the “Mean AUC exposure, multiple of the MRHD of 84 mg/day” value (shortened to “Mean AUC exposure, multiple”) ([2]; 4.5 mg/kg/day intranasal) was “approximately 0.05 times”, the “Mean AUC exposure, multiple” value ([2]; 15 mg/kg/day intranasal) was roughly 0.3 times and the “Mean AUC exposure, multiple” value ([2]; 45 mg/kg/day intranasal) was roughly 0.6 times. The NOAEL [3] was 45 mg/kg/day, the “Subjects with an AE leading to discontinuation of intranasal esketamine considered related to esketamine” value [4] was 51 subjects and the “Sedation (MOAA/S) resolved by” value [5] was no more than 1.5 h. For the same compound, the “AUC exposure, multiple of the MRHD of 84 mg/day” value ([6]; 4.5 mg/kg/day intranasal) was 0.07 times, the “AUC exposure, multiple of the MRHD of 84 mg/day” value ([6]; 15 mg/kg/day intranasal) was 0.5 times and the “AUC exposure, multiple of the MRHD of 84 mg/day” value ([6]; 45 mg/kg/day intranasal) was 0.7 times. For the same compound, the NOAEL [7] was 4.5 mg/kg/day, the “Inhibition potential against CYPs and UGTs” value [8] was “did not show inhibition potential” and the “Proportion of subjects with sedation (post dose MOAA/S score of ≤3)” value [9] was less than 4%. For the same compound, the “BHS total score: change vs placebo” value ([10]; Day 1: 4-hours postdose) was “no statistically significant difference”, the “BHS total score: change vs placebo” value ([10]; End Point (DB)) was “statistically superior” and the “BHS total score, change to Day 1 (DB): 4H, Diff. of LS Means (SE)” value [10, 13] was −1.5 (1.47). For the same compound, the “BHS total score, change to End Point (DB), Diff. of LS Means (SE)” value [10, 13] was −2.3 (1.66), the “BHS total score, Day 1 (DB): 4H, Median (Range)” value [10, 14] was 14.0 (0; 20) and the “BHS total score, End Point (DB), Mean (SD)” value [10, 14] was 6.2 (5.96). For the same compound, the “BHS total score, End Point (DB), Median (Range)” value [10, 14] was 4.0 (0; 20), the “BHS total score, Change from Baseline to Day 1 (DB): 4H, Mean (SD)” value [10, 15] was −4.1 (5.63) and the “BHS total score, Change from Baseline to Day 1 (DB): 4H, Median (Range)” value [10, 15] was −2.0 (−16; 2). The “BHS total score, Change from Baseline to End Point (DB), Median (Range)” value [10, 15] was −11.0 (−19; 0), the “BHS total score, Baseline (DB), Median (Range)” value ([10]; esketamine 84 mg, predose Day 1, ITT, N = 35) was 17.0 (9; 20) and the Withdrawal symptoms [11] was “no withdrawal symptoms”. The Metabolic pathway [12] was “primarily metabolized to noresketamine metabolite via cytochrome P450 (CYP) enzymes CYP2B6 and CYP3A4”.
